In patent US8569245B2, “Protease inhibitors, compositions and methods of use” (University of Florida Research Foundation, Inc., priority 2009, dated 2013):
Starred links: 1 amine or outer side, 2 acyl side, 3 side chain; linkers in the order of their positions; H or OH if unused. Non-standard residues stand in square brackets, D forms with d. Residues, ends and D or L forms follow the SMILES beside them. *: point of attachment. Sta = CC(C)C[C@H](N)[C@@H](O)CC(=O)O; X2 = CC(C)CC(N[*:1])C(O)CC(=O)[*:2]; NMe2Val = CC(C)[C@@H](C(=O)*)N(C)C; dNMeF = CN[C@H](Cc1ccccc1)C(=O)O; NMeF = CN[CH](Cc1ccccc1)C(=O)O; NMeQ = CN[CH](CCC(N)=O)C(=O)O; dHiv = CC(C)[C@@H](O)C(=O)O; Hiv = CC(C)[C@H](O)C(=O)O; Isovaleryl = CC(C)CC(=O)*; X1 = CCC(C)C(O)C(=O)*

What was measured:
[1] = test system: TH cells induced by allogeneic activated DC; experiment: Allogeneic mixed lymphocyte reaction, DCs and TH cells from different donors; type: cell-based, human; conditions: allogeneic MLR
cathepsin E = biological target: T1, cathepsin E (Homo sapiens, UniProt P14091); experiment: Protease inhibition screen and dose-response assay; type: biochemical; conditions: 10 μM
T1 construct: Reaction Biology Corp. (ran the assay)
T1 sequence (P14091 54-396): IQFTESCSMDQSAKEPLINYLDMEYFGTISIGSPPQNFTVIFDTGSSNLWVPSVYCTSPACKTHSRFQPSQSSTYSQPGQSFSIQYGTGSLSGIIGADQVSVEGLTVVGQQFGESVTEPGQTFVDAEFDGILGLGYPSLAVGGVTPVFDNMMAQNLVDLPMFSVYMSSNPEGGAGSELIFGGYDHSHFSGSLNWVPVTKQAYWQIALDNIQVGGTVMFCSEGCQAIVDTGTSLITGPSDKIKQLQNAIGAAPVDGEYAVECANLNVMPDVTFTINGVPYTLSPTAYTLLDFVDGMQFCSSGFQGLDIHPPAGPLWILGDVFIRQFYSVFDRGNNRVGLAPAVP
Procedure: (§1) After incubation at room temperature for 10-15 min, the substrate was added, after which fluorescence at each relevant Ex/Em wavelength was measured every 5 min for 2 h. The substrate alone in the reaction buffer served as background. […] Each enzyme assay was performed in duplicate by Reaction Biology Corp. (Malvern, Pa.).
(§2) Assays were carried out by Reaction Biology Corp. (Malvern, Pa.). Enzyme activity (in %), calculated as above, was used to determine IC50 values with non-linear regression in GraphPad Prism (GraphPad Software, Inc., La Jolla, Calif.).

cathepsin D = biological target: T2, cathepsin D (Homo sapiens, UniProt P07339); type: biochemical; conditions: 10 μM
T2 construct: Reaction Biology Corp. (ran the assay)
Procedure: as §1, §2

MCF7 cells [2] = experiment: Cellular uptake and inhibition of cellular cathepsins, treated cells then lysed, cathepsin D/E substrate; type: cell-based
Procedure: MCF7 cells were cultured in Dulbecco's Modified Eagle Medium (DMEM, Invitrogen) containing 10% fetal bovine serum (FBS, HyClone, Logan, Utah), in a humidified atmosphere containing 5% CO2 at 37° C. Briefly, MCF7 cells were seeded into 24-well plates. […] After 1 h incubation the medium was removed and the cells were trypsinized for 10 min, before being collected by centrifugation and lysed with NP-40 lysis buffer (1% NP-40, 50 mM NaOAc, pH 4.0). The lysate (50 μL) from each well was incubated at 37° C. with 10 μM Mca-[…]Dnp)-D-Arg-NH2 (the same substrate used for cathepsin D and E in other assays) in 50 mM NaOAc (pH 4.0, total volume 100 μL). The reaction was monitored by measuring the increase in fluorescence (λex=320 nm, λem=405 nm).
After this time, cells were washed, lysed and then the protease activity of the lysate was measured with a fluorogenic cathepsin D/E substrate (see FIG. 9A).

[3] = test system: human peripheral blood mononuclear cells (PBMCs); experiment: Antigen-stimulated T cell proliferation in PBMCs (flow cytometry, CD3+ gate); type: cell-based; conditions: same experiment, PBMC
Procedure: PBMCs were isolated from buffy coats (leukopac, PBL) obtained from Lifesouth Community Blood Center (Gainesville, Fla., USA) by Ficoll-Hypaque density gradient centrifugation using Lymphoprep (Axis-Shield, Norway). Briefly, the contents of the buffy coat were diluted to three times its volume in sterile 1×PBS pH 7.4 (Gibco, California, USA). The dilution was layered onto the Lymphoprep in a 2:1 ratio. The sample was then centrifuged for 25 min at room temperature and 250 g. The PBMCs were collected at the interface, washed twice with PBS and centrifuged each time for 10 min at 4° C. and 250 g. Cell viability was assessed by trypan blue exclusion. […]
Experimental pelleted cells were incubated for 30 min at 4° C. with antibodies and washed with staining buffer (PBS+2% BSA+0.1% Na azide). […] Quantitation was carried out using FCS Express (version 3, De Novo Software, Los Angeles, Calif.) by gating for lymphocytes based on forward and side scatter properties followed by analysis of the percentages of positively stained quadrants. 50,000 cells were analyzed for each sample and isotype-specific immunoglobulin controls were run for each fluorochrome. […]

[4] = Solubility in DMSO for dilution series; type: physicochemical
MCF7 cells [5] = conditions: literature (Zaidi et al. 2007); cited from earlier work

T2 sequence (P07339 65-412): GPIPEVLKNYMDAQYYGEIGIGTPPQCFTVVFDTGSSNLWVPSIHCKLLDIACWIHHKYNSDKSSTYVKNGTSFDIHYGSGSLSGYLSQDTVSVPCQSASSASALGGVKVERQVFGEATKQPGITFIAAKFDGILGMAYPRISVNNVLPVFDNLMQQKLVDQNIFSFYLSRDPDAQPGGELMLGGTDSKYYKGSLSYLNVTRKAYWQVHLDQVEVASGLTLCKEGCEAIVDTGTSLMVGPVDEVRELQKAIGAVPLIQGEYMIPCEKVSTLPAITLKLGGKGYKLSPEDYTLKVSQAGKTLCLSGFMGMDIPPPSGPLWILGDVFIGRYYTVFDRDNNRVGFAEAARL

SMILES: COC(=O)[C@@H]1CCCN1C(=O)[C@@H](Cc1ccccc1)N(C)C(=O)[C@H](C)NC(=O)[C@@H](NC(=O)C[C@H](O)[C@H](CC(C)C)NC(=O)[C@H](CC(N)=O)NC(=O)[C@H](CC(C)C)NC(=O)[C@H](OC(=O)[C@@H](OC(=O)[C@H](C(C)C)N(C)C)C(C)C)C(C)C)[C@@H](C)O [Compound 1, grassystatin A] (NMe2Val-[Hiv][dHiv]LN[Sta]TA[dNMeF]P-OMe)
- DC stimulated proliferation [1]: no effect
- inhibitory activity in protease panel (cathepsin E): active
- inhibitory activity in protease panel (cathepsin D): active
- ability to enter cells (MCF7 cells [2]; MCF7 cells, inferred from cellular vs lysate IC50): more efficiently enter cells than pepstatin A
- T cell viability [3]: unaffected

SMILES: CCC(C)C(O)C(=O)NC(CC(C)C)C(=O)N(C)C(CCC(N)=O)C(=O)NC(CC(C)C)C(O)CC(=O)NC(C(=O)NCC(=O)N(C)C(Cc1ccccc1)C(=O)N1CCCC1C(=O)OC)C(C)CC (centres unmarked) [Compound 3, grassystatin C] (X1-L[NMeQ][X2]IG[NMeF]P-OMe; configuration not given here)
- solubility in DMSO [4]: insoluble

SMILES: CC(C)CC(=O)N[C@H](C(=O)N[C@H](C(=O)N[C@@H](CC(C)C)[C@@H](O)CC(=O)N[C@@H](C)C(=O)N[C@@H](CC(C)C)[C@@H](O)CC(=O)O)C(C)C)C(C)C [pepstatin A, reference compound] (Isovaleryl-VV[Sta]A[Sta]-OH)
- cell permeability (MCF7 cells [5]): poor cell permeability
- apparent IC50 in a cellular system (MCF7 cells [2]; MCF7 cells treated 1 h, lysate protease activity): fairly similar
